# System: MV-4-11 cells
# Assay: Gene expression microarray analysis (Affymetrix PrimeView) and GSEA
# Format: cell-based, human
# Parameters: RFU PODN (11730768_x_at) / Fold change /veh PODN (11730768_x_at) / RFU LINC00158 (11744669_a_at) / Fold change /veh LINC00158 (11744669_a_at) / RFU DUSP10 (11751237_a_at) / Fold change /veh DUSP10 (11751237_a_at) / RFU ID3 (11757404_x_at) / Fold change /veh ID3 (11757404_x_at) / RFU PLEKHG5 (11737974_s_at) / Fold change /veh PLEKHG5 (11737974_s_at) / RFU LRRC4B (11730491_at) / Fold change /veh LRRC4B (11730491_at) / RFU GIMAP4 (11747438_a_at) / Fold change /veh GIMAP4 (11747438_a_at) / RFU KRT8 (11758183_x_at) / Fold change /veh KRT8 (11758183_x_at) / RFU CNN1 (11734310_a_at) / Fold change /veh CNN1 (11734310_a_at) / RFU VPS37D (11726825_at) / Fold change /veh VPS37D (11726825_at) / RFU C10orf10 (11716522_x_at) / Fold change /veh C10orf10 (11716522_x_at) / RFU KIR2DL2 /// KIR2DL4 /// KIR2DL5A /// KIR2DL5B /// KIR2DS1 /// KIR2DS2 /// KIR2DS3 /// KIR2DS4 /// KIR3DL3 /// KIR3DL3 /// KIR3DS1 (11738374_at) / Fold change /veh KIR2DL2 /// KIR2DL4 /// KIR2DL5A /// KIR2DL5B /// KIR2DS1 /// KIR2DS2 /// KIR2DS3 /// KIR2DS4 /// KIR3DL3 /// KIR3DL3 /// KIR3DS1 (11738374_at) / RFU C1QL1 (11718748_at) / Fold change /veh C1QL1 (11718748_at) / RFU TMPRSS4 (11747572_a_at) / Fold change /veh TMPRSS4 (11747572_a_at) / RFU HAMP (11756126_x_at) / Fold change /veh HAMP (11756126_x_at) / RFU RNFT2 (11725882_a_at) / Fold change /veh RNFT2 (11725882_a_at) / RFU NR4A2 (11747474_a_at) / Fold change /veh NR4A2 (11747474_a_at) / RFU ABCC12 (11746883_a_at) / Fold change /veh ABCC12 (11746883_a_at) / RFU TMEM136 (11760407_x_at) / Fold change /veh TMEM136 (11760407_x_at) / RFU CLDN22 /// WWC2 (11732394_at) / Fold change /veh CLDN22 /// WWC2 (11732394_at) / RFU HLA-DPB1 (11760878_x_at) / Fold change /veh HLA-DPB1 (11760878_x_at) / RFU SPINT1 (11716480_a_at) / Fold change /veh SPINT1 (11716480_a_at) / RFU GAP43 (11754022_s_at) / Fold change /veh GAP43 (11754022_s_at) / RFU A4GNT (11735810_at) / Fold change /veh A4GNT (11735810_at) / RFU PRB3 (11715151_x_at) / Fold change /veh PRB3 (11715151_x_at) / RFU TUBB4B (11761932_at) / Fold change /veh TUBB4B (11761932_at) / RFU CAPN14 (11732068_a_at) / Fold change /veh CAPN14 (11732068_a_at) / RFU TMCC2 (11721928_a_at) / Fold change /veh TMCC2 (11721928_a_at) / RFU IRGQ (11745062_a_at) / Fold change /veh IRGQ (11745062_a_at) / RFU FAM174B (11720279_a_at) / Fold change /veh FAM174B (11720279_a_at) / RFU TMPRSS4 (11748680_a_at) / Fold change /veh TMPRSS4 (11748680_a_at) / RFU FAM212B (11763350_a_at) / Fold change /veh FAM212B (11763350_a_at) / RFU PLEKHG5 (11743358_a_at) / Fold change /veh PLEKHG5 (11743358_a_at) / RFU ZSCAN30 (11745921_a_at) / Fold change /veh ZSCAN30 (11745921_a_at) / RFU CMKLR1 (11741424_a_at) / Fold change /veh CMKLR1 (11741424_a_at) / RFU LOC101060620 /// MAPK8IP1 (11723275_at) / Fold change /veh LOC101060620 /// MAPK8IP1 (11723275_at) / RFU SPTSSB (11747773_x_at) / Fold change /veh SPTSSB (11747773_x_at) / RFU PRSS12 (11739890_at) / Fold change /veh PRSS12 (11739890_at) / RFU BIN1 (11741810_x_at) / Fold change /veh BIN1 (11741810_x_at) / RFU WNT11 (11732464_a_at) / Fold change /veh WNT11 (11732464_a_at) / RFU C10orf10 (11716521_a_at) / Fold change /veh C10orf10 (11716521_a_at) / RFU C5orf56 (11738089_at) / Fold change /veh C5orf56 (11738089_at) / RFU CYB561 (11721691_x_at) / Fold change /veh CYB561 (11721691_x_at) / RFU ANKRD19P (11752326_a_at) / Fold change /veh ANKRD19P (11752326_a_at) / RFU OR2T12 /// OR2T33 /// OR2T8 (11738714_s_at) / Fold change /veh OR2T12 /// OR2T33 /// OR2T8 (11738714_s_at) / RFU VCAN (11748164_a_at) / Fold change /veh VCAN (11748164_a_at) / RFU JSRP1 (11732532_at) / Fold change /veh JSRP1 (11732532_at) / RFU KRTAP10-11 (11738290_x_at) / Fold change /veh KRTAP10-11 (11738290_x_at) / RFU MYO3A (11730013_a_at) / Fold change /veh MYO3A (11730013_a_at) / RFU EBF3 (11725865_a_at) / Fold change /veh EBF3 (11725865_a_at) / RFU CAMK2N1 (11719241_x_at) / Fold change /veh CAMK2N1 (11719241_x_at) / RFU C5orf56 (11738088_a_at) / Fold change /veh C5orf56 (11738088_a_at) / RFU OLFML3 (11715873_a_at) / Fold change /veh OLFML3 (11715873_a_at) / RFU LOC100653217 /// NTM (11731650_a_at) / Fold change /veh LOC100653217 /// NTM (11731650_a_at) / RFU MAPK11 (11762145_a_at) / Fold change /veh MAPK11 (11762145_a_at) / RFU FIZ1 (11724087_x_at) / Fold change /veh FIZ1 (11724087_x_at) / RFU OASL (11726364_x_at) / Fold change /veh OASL (11726364_x_at) / RFU SOX15 (11748057_x_at) / Fold change /veh SOX15 (11748057_x_at) / RFU CD79A (11719716_a_at) / Fold change /veh CD79A (11719716_a_at) / RFU HIST1H1D (11736915_at) / Fold change /veh HIST1H1D (11736915_at) / RFU CASKIN2 (11723855_a_at) / Fold change /veh CASKIN2 (11723855_a_at) / RFU LOC730098 (11760151_x_at) / Fold change /veh LOC730098 (11760151_x_at) / RFU OR4N2 (11742367_at) / Fold change /veh OR4N2 (11742367_at) / RFU PRRT2 (11749266_a_at) / Fold change /veh PRRT2 (11749266_a_at) / RFU SNX32 (11753110_a_at) / Fold change /veh SNX32 (11753110_a_at) / RFU CDHR5 (11726645_a_at) / Fold change /veh CDHR5 (11726645_a_at) / RFU RCAN1 (11760418_a_at) / Fold change /veh RCAN1 (11760418_a_at) / RFU FAM167A (11723789_a_at) / Fold change /veh FAM167A (11723789_a_at) / RFU FAM26E (11764081_at) / Fold change /veh FAM26E (11764081_at) / RFU ISYNA1 (11749810_s_at) / Fold change /veh ISYNA1 (11749810_s_at) / RFU ACY1 (11761880_at) / Fold change /veh ACY1 (11761880_at) / RFU 11764098_at / Fold change /veh 11764098_at / RFU SAMD14 (11745864_x_at) / Fold change /veh SAMD14 (11745864_x_at) / RFU NPB (11741838_a_at) / Fold change /veh NPB (11741838_a_at) / RFU TMPRSS6 (11731388_a_at) / Fold change /veh TMPRSS6 (11731388_a_at) / RFU KRTAP10-2 (11738614_at) / Fold change /veh KRTAP10-2 (11738614_at) / RFU ARHGAP8 /// PRR5-ARHGAP8 (11727945_x_at) / Fold change /veh ARHGAP8 /// PRR5-ARHGAP8 (11727945_x_at) / RFU KRTAP5-7 /// NADSYN1 (11734609_at) / Fold change /veh KRTAP5-7 /// NADSYN1 (11734609_at) / RFU RASL12 (11751679_a_at) / Fold change /veh RASL12 (11751679_a_at) / RFU CDKN2B (11736163_a_at) / Fold change /veh CDKN2B (11736163_a_at) / RFU PRF1 (11729649_at) / Fold change /veh PRF1 (11729649_at) / RFU, ZNF638 /// ZNF638-IT1 / Fold change vs veh, ZNF638 /// ZNF638-IT1 / RFU, PANK3 / Fold change vs veh, PANK3 / RFU, SH3YL1 / Fold change vs veh, SH3YL1 / RFU, ZEB2 / Fold change vs veh, ZEB2 / RFU, NRIP1 / Fold change vs veh, NRIP1 / RFU, PTTG1IP / Fold change vs veh, PTTG1IP / RFU, CAPN2 / Fold change vs veh, CAPN2 / RFU, MED14 / Fold change vs veh, MED14 / RFU, SNORA58 / Fold change vs veh, SNORA58 / RFU, C1orf63 / Fold change vs veh, C1orf63 / RFU, LRRFIP1 / Fold change vs veh, LRRFIP1 / RFU, NDUFAF7 / Fold change vs veh, NDUFAF7 / RFU, SLC12A2 / Fold change vs veh, SLC12A2 / RFU, IBTK / Fold change vs veh, IBTK / RFU, ESF1 / Fold change vs veh, ESF1 / Fold change vs veh, TMEM50B / RFU, TAOK1 / Fold change vs veh, TAOK1 / RFU, ACBD3 / Fold change vs veh, ACBD3 / RFU, TMA16 / Fold change vs veh, TMA16 / RFU, RWDD3 / Fold change vs veh, RWDD3 / RFU, BCAT1 / Fold change vs veh, BCAT1 / RFU, EDEM3 / Fold change vs veh, EDEM3 / RFU, TMEM33 / Fold change vs veh, TMEM33 / RFU, WDR75 / Fold change vs veh, WDR75 / RFU, AHCTF1 / Fold change vs veh, AHCTF1 / RFU, TFRC / Fold change vs veh, TFRC / RFU, ZDHHC17 / Fold change vs veh, ZDHHC17 / RFU, NOM1 / Fold change vs veh, NOM1 / RFU, ARL8B / Fold change vs veh, ARL8B / RFU, ZBTB11 / Fold change vs veh, ZBTB11 / RFU, TAMM41 / Fold change vs veh, TAMM41 / RFU, KIAA1704 /// LOC100996395 / Fold change vs veh, KIAA1704 /// LOC100996395 / RFU, ING1 / Fold change vs veh, ING1 / RFU, TRMT61B / Fold change vs veh, TRMT61B / RFU, FUBP3 / Fold change vs veh, FUBP3 / RFU, TP53 / Fold change vs veh, TP53 / RFU, TNKS2 / Fold change vs veh, TNKS2 / RFU, ZFP14 / Fold change vs veh, ZFP14 / RFU, ACTR2 / Fold change vs veh, ACTR2 / RFU, PPP3R1 / Fold change vs veh, PPP3R1 / RFU, PIK3R1 / Fold change vs veh, PIK3R1 / RFU, HNRNPA1 / Fold change vs veh, HNRNPA1 / RFU, RNF170 / Fold change vs veh, RNF170 / RFU, ZNF28 / Fold change vs veh, ZNF28 / RFU, RNGTT / Fold change vs veh, RNGTT / RFU, OGT / Fold change vs veh, OGT / RFU, BRD1 / Fold change vs veh, BRD1 / RFU, MARS / Fold change vs veh, MARS / RFU, ZNF655 / Fold change vs veh, ZNF655 / RFU, FAHD1 / Fold change vs veh, FAHD1 / RFU, BDP1 / Fold change vs veh, BDP1 / RFU, LRRCC1 / Fold change vs veh, LRRCC1 / RFU, ARID1A / Fold change vs veh, ARID1A / RFU, ZNF146 / Fold change vs veh, ZNF146 / RFU, ZNF330 / Fold change vs veh, ZNF330 / RFU, GPN3 / Fold change vs veh, GPN3 / RFU, C9orf123 / Fold change vs veh, C9orf123 / RFU, N4BP2L2 / Fold change vs veh, N4BP2L2 / RFU, ARFIP1 / Fold change vs veh, ARFIP1 / RFU, FAM179B / Fold change vs veh, FAM179B / RFU, BCL10 / Fold change vs veh, BCL10 / RFU, UHRF1BP1L / Fold change vs veh, UHRF1BP1L / RFU, BET1 / Fold change vs veh, BET1 / RFU, CNOT2 / Fold change vs veh, CNOT2 / RFU, ZNF268 / Fold change vs veh, ZNF268 / Fold change vs veh, ZNF507 / RFU, DGCR2 / Fold change vs veh, DGCR2 / RFU, WDSUB1 / Fold change vs veh, WDSUB1 / Fold change vs veh, HSP90B1 /// MIR3652 / RFU, ADSS / Fold change vs veh, ADSS / RFU, GK / Fold change vs veh, GK / RFU, ZNF148 / Fold change vs veh, ZNF148 / RFU, TAF9 / Fold change vs veh, TAF9 / RFU, SLC1A5 / Fold change vs veh, SLC1A5 / RFU, SLMO2 / Fold change vs veh, SLMO2 / RFU, ABCC4 / Fold change vs veh, ABCC4 / RFU, LOC101060439 /// RAP1B / Fold change vs veh, LOC101060439 /// RAP1B / RFU, RFX7 / Fold change vs veh, RFX7 / RFU, GTPBP10 / Fold change vs veh, GTPBP10 / RFU, CNEP1R1 / Fold change vs veh, CNEP1R1 / RFU, BIVM-ERCC5 /// ERCC5 / Fold change vs veh, BIVM-ERCC5 /// ERCC5 / RFU, ILF3 / Fold change vs veh, ILF3 / RFU 11762660_at / Fold change /veh 11762660_at / RFU VCAN (11757783_s_at) / Fold change /veh VCAN (11757783_s_at) / RFU DDX43 (11728927_at) / Fold change /veh DDX43 (11728927_at) / RFU KRT8 (11758188_x_at) / Fold change /veh KRT8 (11758188_x_at) / RFU NKD1 (11759106_at) / Fold change /veh NKD1 (11759106_at) / RFU SRD5A1 (11742802_a_at) / Fold change /veh SRD5A1 (11742802_a_at) / RFU TPSAB1 /// TPSB2 (11721975_s_at) / Fold change /veh TPSAB1 /// TPSB2 (11721975_s_at) / RFU GSTM3 (11746129_a_at) / Fold change /veh GSTM3 (11746129_a_at) / RFU IL23R (11737362_x_at) / Fold change /veh IL23R (11737362_x_at) / RFU TMEM51 (11727254_a_at) / Fold change /veh TMEM51 (11727254_a_at) / RFU PIWIL2 (11732686_x_at) / Fold change /veh PIWIL2 (11732686_x_at) / RFU ORM1 (11744905_x_at) / Fold change /veh ORM1 (11744905_x_at) / RFU CCDC152 (11743942_at) / Fold change /veh CCDC152 (11743942_at) / RFU ECM1 (11717891_a_at) / Fold change /veh ECM1 (11717891_a_at) / RFU IL23R (11748794_a_at) / Fold change /veh IL23R (11748794_a_at) / RFU TNFAIP8L3 (11732012_x_at) / Fold change /veh TNFAIP8L3 (11732012_x_at) / RFU MBOAT4 (11741988_at) / Fold change /veh MBOAT4 (11741988_at) / RFU 11764193_at / Fold change /veh 11764193_at / RFU TMEM53 (11763286_at) / Fold change /veh TMEM53 (11763286_at) / RFU MAGEB2 (11727129_at) / Fold change /veh MAGEB2 (11727129_at) / RFU TMEM200A (11744735_a_at) / Fold change /veh TMEM200A (11744735_a_at) / RFU CCDC152 (11751479_a_at) / Fold change /veh CCDC152 (11751479_a_at) / RFU FAM211A (11726209_a_at) / Fold change /veh FAM211A (11726209_a_at) / RFU RGS16 (11746705_a_at) / Fold change /veh RGS16 (11746705_a_at) / RFU VCAN (11755009_s_at) / Fold change /veh VCAN (11755009_s_at) / RFU RHOB (11743442_s_at) / Fold change /veh RHOB (11743442_s_at) / RFU RGS16 (11720943_a_at) / Fold change /veh RGS16 (11720943_a_at) / RFU RGS16 (11720944_at) / Fold change /veh RGS16 (11720944_at) / RFU, VPS4B / Fold change vs veh, VPS4B / RFU, CREB1 / Fold change vs veh, CREB1 / RFU, DNAJC13 / Fold change vs veh, DNAJC13 / RFU, GNAQ / Fold change vs veh, GNAQ / RFU, CDK5R1 / Fold change vs veh, CDK5R1 / RFU, ZRANB3 / Fold change vs veh, ZRANB3 / RFU, CUL4A / Fold change vs veh, CUL4A / RFU, CCNY / Fold change vs veh, CCNY / RFU, UFL1 / Fold change vs veh, UFL1 / RFU, COG3 / Fold change vs veh, COG3 / RFU, DIAPH2 / Fold change vs veh, DIAPH2 / RFU, SKA2 / Fold change vs veh, SKA2 / RFU, AFF3 / Fold change vs veh, AFF3 / RFU, LMF1 / Fold change vs veh, LMF1 / RFU, IPO11 / Fold change vs veh, IPO11 / RFU, DFFB / Fold change vs veh, DFFB / RFU, FOXP1 / Fold change vs veh, FOXP1 / RFU, CARD8 / Fold change vs veh, CARD8 / RFU, STRN3 / Fold change vs veh, STRN3 / RFU, ADK / Fold change vs veh, ADK / RFU, RASSF2 / Fold change vs veh, RASSF2 / RFU, WIPF1 / Fold change vs veh, WIPF1 / RFU, LARP1B / Fold change vs veh, LARP1B / RFU, RASA1 / Fold change vs veh, RASA1 / RFU, RB1 / Fold change vs veh, RB1 / RFU, PPFIA1 / Fold change vs veh, PPFIA1 / RFU, MAT2A / Fold change vs veh, MAT2A / RFU, CCT5 / Fold change vs veh, CCT5 / RFU, WDR92 / Fold change vs veh, WDR92 / RFU, CUX1 / Fold change vs veh, CUX1 / RFU, TTC7A / Fold change vs veh, TTC7A / RFU, TMEM135 / Fold change vs veh, TMEM135 / RFU, DEPTOR / Fold change vs veh, DEPTOR / RFU, CPM / Fold change vs veh, CPM / RFU, DNAJB6 / Fold change vs veh, DNAJB6 / RFU, CACNA2D3 / Fold change vs veh, CACNA2D3 / RFU, DTX4 / Fold change vs veh, DTX4 / RFU, TFCP2 / Fold change vs veh, TFCP2 / RFU, GMCL1 /// GMCL1P1 / Fold change vs veh, GMCL1 /// GMCL1P1 / RFU, AEBP2 / Fold change vs veh, AEBP2 / RFU, SNHG1 /// SNORD22 /// SNORD25 /// SNORD26 /// SNORD27 /// SNORD28 /// SNORD29 /// SNORD31 / Fold change vs veh, SNHG1 /// SNORD22 /// SNORD25 /// SNORD26 /// SNORD27 /// SNORD28 /// SNORD29 /// SNORD31 / Fold change (Aza/veh), C12orf56 (ProbeSet 11735607_a_at) / Fold change (ACY-1035/veh), C12orf56 (ProbeSet 11735607_a_at) / Fold change (Aza/veh), FGFR1OP (ProbeSet 11751329_s_at) / Fold change (ACY-1035/veh), FGFR1OP (ProbeSet 11751329_s_at) / Fold change (Aza/veh), VPS36 (ProbeSet 11739960_a_at) / Fold change (ACY-1035/veh), VPS36 (ProbeSet 11739960_a_at) / RFU SYPL1 (11715823_x_at) / Fold change /veh SYPL1 (11715823_x_at) / RFU IGFBP7 (11715501_s_at) / Fold change /veh IGFBP7 (11715501_s_at) / RFU REEP3 (11722064_at) / Fold change /veh REEP3 (11722064_at) / RFU IGLL1 (11728026_x_at) / Fold change /veh IGLL1 (11728026_x_at): dose or concentration left out as unconfirmed
# Details: ProbeSet 11743567_s_at; LIST B
smiles,measurement,value
Nc1ccc(-c2cccs2)cc1NC(=O)c1ccc2c(c1)cc(C1CC1)n2CCN1CCOCC1 [ACY-1035],"Fold change vs veh, ACBD3",0.99

# From publication PMC5218480 (PLoS ONE, 2017)
